The values below come from US8551991B2, “1,2,3,4-tetrahydroquinoxaline derivative having glucocorticoid receptor binding activity” (Santen Pharmaceutical Co., Ltd., priority 2006, dated 2013).

The assay deals with T1, Recombinant human GR (Homo sapiens, UniProt P04150).
T1 construct: purchased Invitrogen P2816
T1 sequence (P04150 1-777): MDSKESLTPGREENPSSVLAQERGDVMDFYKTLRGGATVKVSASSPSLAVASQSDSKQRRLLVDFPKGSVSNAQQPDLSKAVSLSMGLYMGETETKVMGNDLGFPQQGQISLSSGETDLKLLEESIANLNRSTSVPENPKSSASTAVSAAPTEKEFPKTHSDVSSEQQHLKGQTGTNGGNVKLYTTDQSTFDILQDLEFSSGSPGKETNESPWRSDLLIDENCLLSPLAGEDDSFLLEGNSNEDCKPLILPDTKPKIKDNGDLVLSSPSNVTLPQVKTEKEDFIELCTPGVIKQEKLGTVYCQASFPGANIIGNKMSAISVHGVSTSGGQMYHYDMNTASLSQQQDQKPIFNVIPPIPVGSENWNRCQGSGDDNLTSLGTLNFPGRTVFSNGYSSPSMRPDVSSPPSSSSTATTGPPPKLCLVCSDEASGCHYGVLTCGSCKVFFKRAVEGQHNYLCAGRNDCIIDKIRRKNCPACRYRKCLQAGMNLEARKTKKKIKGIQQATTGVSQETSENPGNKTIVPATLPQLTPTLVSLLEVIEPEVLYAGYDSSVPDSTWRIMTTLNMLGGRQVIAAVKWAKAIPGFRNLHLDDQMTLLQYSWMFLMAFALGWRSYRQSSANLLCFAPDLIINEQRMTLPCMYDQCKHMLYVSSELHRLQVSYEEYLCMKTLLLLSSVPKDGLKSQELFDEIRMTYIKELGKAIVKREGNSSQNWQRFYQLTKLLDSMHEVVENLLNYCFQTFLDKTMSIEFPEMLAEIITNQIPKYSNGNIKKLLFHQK
Kind of assay: GR competitor assay by fluorescence polarization (binding activity to glucocorticoid receptor). The following applies: 20 μM test compound solution, 25 μL per well plus 12.5 μL each of 4×GS1 and 4×GR solution; Fluormone GS1 ligand; positive control 2 mM dexamethasone; read-out: GR Binding ratio (%). The procedure: 1. Evaluation Test for Binding Activity to Glucocorticoid Receptor (Hereinafter Referred to as “GR”)
In order to evaluate a binding activity to GR, a receptor competitor assay was carried out by a fluorescence polarization method. In the assay, a GR competitor assay kit (manufactured by Invitrogen, cat No. P2816) was used, and a procedure was carried out according to the protocol attached to the kit. Hereinafter, the specific method will be described.
GR screening buffer: A buffer containing 10 mM potassium phosphate (pH 7.4), 20 mM sodium molybdate (Na2MoO4), 0.1 mM ethylene diamine tetraacetic acid (EDTA), 5 mM dithiothreitol (DTT), 0.1 mM stabilizing peptide and 2% dimethylsulfoxide was prepared.
4×GS1 solution: Fluormone™ GS1, which is a fluorescent glucocorticoid ligand, was diluted with GR screening buffer, whereby a 4 nM solution was prepared.
4×GR solution: Recombinant human GR was diluted with GR screening buffer, whereby a 16 nM solution was prepared.
After a test compound was dissolved in dimethylsulfoxide, the resulting solution was diluted with GR screening buffer, whereby a 20 μM test compound solution was prepared.
1) The test compound solution was added in an amount of 25 μL into each well of a 96-well plate, and then, 4×GS1 solution and 4×GR solution were added in an amount of 12.5 μL into each well, respectively.
2) The plate was incubated in a dark place at room temperature for 2 to 4 hours.
3) By using a multimode plate reader, Analyst™ HT (manufactured by LJL Biosystems), fluorescence polarization of each well was measured. As the blank, a well containing GR screening buffer in place of the test compound and 4×GS1 solution was used.
4) The same procedure as that in the above 1) to 3) was carried out except that GR screening buffer was used in place of the test compound solution, and the obtained result was taken as the negative control.
5) The same procedure as that in the above 1) to 3) was carried out except that 2 mM dexamethasone was used in place of the test compound solution, and the obtained result was taken as the positive control.
A GR binding ratio (%) was calculated from the following equation.
GR binding ratio (%)=100×[1-(fluorescence polarization of test compound solution-fluorescence polarization of positive control solution)/(fluorescence polarization of negative control solution—fluorescence polarization of positive control solution)]
Background: In fluorescence polarisation assays a small probe gives low polarisation when free and higher when bound to something large.

For `COc1cc(OC(=O)c2cocn2)ccc1-c1ccc2c(c1COc1cc(F)ccc1C)N(C)C(=O)C(C)(C)N2` [Compound 15-11], the inhibition at 10 µM turned out to be 100%.

With `COc1cc(OC(=O)Nc2ccccc2)ccc1-c1ccc2c(c1COC(=O)c1ccc(C)s1)N(C)C(=O)C(C)(C)N2` [Compound 17-16, 7-(2-Methoxy-4-phenylaminocarbonyloxyphenyl)-8-(5-methylthiophen-2-ylcarbonyloxymethyl)-1,3,3-trimethyl-3,4-dihydro-1H-quinoxalin-2-one], the inhibition at 10 µM came to 88%.

Consider `COc1cc(OC(=O)N(C)C)ccc1-c1ccc2c(c1COc1cc(F)ccc1C)N(C)C(=O)C(C)(C)N2` [Compound 18-2, 7-(4-Dimethylaminocarbonyloxy-2-methoxyphenyl)-8-(5-fluoro-2-methylphenoxymethyl)-1,3,3-trimethyl-3,4-dihydro-1H-quinoxalin-2-one], for which the inhibition at 10 µM was 99%.

As for `COc1ccc([N+](=O)[O-])cc1OCc1c(-c2ccc(OC(=O)c3ccccc3C)cc2OC)ccc2c1N(C)C(=O)C(C)(C)N2` [Compound 5-22], the inhibition at 10 µM amounted to 99%.

Turning to `Cc1ccc(F)cc1OCc1c(-c2ccccc2Cl)ccc2c1N(C)C(=O)C(C)(C)N2` [Compound 6-4], the inhibition at 10 µM was 98%.

As for `COc1cc(OC(=O)c2ccccc2C)ccc1-c1ccc2c(c1COc1cc(F)ccc1C)N(C)C(=O)C(C)(C)N2` [Compound 14-2], the inhibition at 10 µM is 100%.

As to `COc1cc(N)ccc1-c1ccc2c(c1COc1cc(F)ccc1C)N(C)C(=O)C(C)(C)N2` [Compound 8-2], the inhibition at 10 µM was 100%.

For `COc1cc(OC(=O)c2cccc(C(C)=O)c2)ccc1-c1ccc2c(c1COc1cc(F)ccc1C)N(C)C(=O)C(C)(C)N2` [Compound 15-13], the inhibition at 10 µM came to 100%.

With `COc1cc(OC(=O)c2cccnc2OC)ccc1-c1ccc2c(c1COc1cc(F)ccc1C)N(C)C(=O)C(C)(C)N2` [Compound 15-22], the inhibition at 10 µM was 100%.

As for `COC(=O)c1cccc(C(=O)Oc2ccc(-c3ccc4c(c3COc3cc(F)ccc3C)N(C)C(=O)C(C)(C)N4)c(OC)c2)c1` [Compound 15-1, 8-(5-Fluoro-2-methylphenoxymethyl)-7-[2-methoxy-4-(3-methoxycarbonylbenzoyloxy)phenyl]-1,3,3-trimethyl-3,4-dihydro-1H-quinoxalin-2-one], the inhibition at 10 µM was determined as 100%.

Regarding `COc1cc(OC(=O)c2ccccc2SC)ccc1-c1ccc2c(c1COC(=O)c1ccc(C)s1)N(C)C(=O)C(C)(C)N2` [Compound 15-24], the inhibition at 10 µM amounted to 94%.

With `COc1cc(F)ccc1-c1ccc2c(c1COC(=O)c1ccc(Br)s1)N(C)C(=O)C(C)(C)N2` [Compound 2-16], the inhibition at 10 µM worked out at 100%.

For the compound `COc1cc(OC(=O)c2ccc(C)nc2)ccc1-c1ccc2c(c1COc1cc(F)ccc1C)N(C)C(=O)C(C)(C)N2` [Compound 15-9], the inhibition at 10 µM is 100%.

Consider `COc1ccc(Cl)cc1-c1ccc2c(c1CNc1ccccc1C(C)C)N(C)C(=O)C(C)(C)N2` [Compound 4-10], for which the inhibition at 10 µM came out at 100%.

For the compound `COc1cc(F)ccc1-c1ccc2c(c1COC(=O)c1ccc(C)s1)N(C)C(=O)C(C)(C)N2` [Compound 2-9], the inhibition at 10 µM was determined as 99%.

Turning to `CSc1ccccc1-c1ccc2c(c1COc1cc(F)ccc1C)N(C)C(=O)C(C)(C)N2` [Compound 6-10], the inhibition at 10 µM stood at 100%.

Turning to `COc1ccc(Cl)cc1-c1ccc2c(c1COc1cc(F)ccc1C)N(C)C(=O)C(C)(C)N2` [Compound 6-15], the inhibition at 10 µM is 100%.

`COc1cc(OC(=O)c2ccccc2Cl)ccc1-c1ccc2c(c1COc1cc(F)ccc1C)N(C)C(=O)C(C)(C)N2` [Compound 14-4]: the inhibition at 10 µM stood at 100%.

Turning to `COc1cc(OC(=O)Oc2ccccc2)ccc1-c1ccc2c(c1COc1cc(F)ccc1C)N(C)C(=O)C(C)(C)N2` [Compound 14-36], the inhibition at 10 µM was determined as 88%.

Regarding `COc1cc(OC(=O)c2ccoc2)ccc1-c1ccc2c(c1COc1cc(F)ccc1C)N(C)C(=O)C(C)(C)N2` [Compound 14-11], the inhibition at 10 µM turned out to be 100%.

In the case of `COc1cc(O)ccc1-c1ccc2c(c1COc1cc(F)ccc1C)N(C)C(=O)C(C)(C)N2` [Compound 11, 8-(5-fluoro-2-methylphenoxymethyl)-7-(4-hydroxy-2-methoxyphenyl)-1,3,3-trimethyl-3,4-dihydro-1H-quinoxalin-2-one], the inhibition at 10 µM worked out at 100%.

With `COc1cc(F)ccc1-c1ccc2c(c1COc1cc(F)ccc1C)N(C)C(=O)C(C)(C)N2` [Compound 6-12], the inhibition at 10 µM is 100%.

Regarding `COc1cc(OC(=O)c2ccccc2F)ccc1-c1ccc2c(c1COC(=O)c1ccc(C)s1)N(C)C(=O)C(C)(C)N2` [Compound 14-44], the inhibition at 10 µM turned out to be 100%.

As to `COC(=O)Oc1ccc(-c2ccc3c(c2COc2cc(F)ccc2C)N(C)C(=O)C(C)(C)N3)c(OC)c1` [Compound 14-35], the inhibition at 10 µM turned out to be 93%.

`C=CC(=O)Oc1ccc(-c2ccc3c(c2COc2cc(F)ccc2C)N(C)C(=O)C(C)(C)N3)c(OC)c1` [Compound 14-33]: the inhibition at 10 µM amounted to 100%.

Regarding `COc1cc(O)ccc1-c1ccc2c(c1COC(=O)c1ccc(C)s1)N(C)C(=O)C(C)(C)N2` [Compound 13-2, 7-(4-Hydroxy-2-methoxyphenyl)-8-(5-methylthiophen-2-ylcarbonyloxymethyl)-1,3,3-trimethyl-3,4-dihydro-1H-quinoxalin-2-one], the inhibition at 10 µM came out at 91%.

Consider `COc1cc(N(C)C(C)=O)ccc1-c1ccc2c(c1COc1cc(F)ccc1C)N(C)C(=O)C(C)(C)N2` [Compound 16-3, 7-[4-(N-Acetyl-N-methylamino)-2-methoxyphenyl]-8-(5-fluoro-2-methylphenoxymethyl)-1,3,3-trimethyl-3,4-dihydro-1H-quinoxalin-2-one], for which the inhibition at 10 µM turned out to be 86%.

Turning to `COc1cc(OC(=O)c2ccccc2C)ccc1-c1ccc2c(c1COC(=O)c1cccc(F)c1)N(C)C(=O)C(C)(C)N2` [Compound 5-24], the inhibition at 10 µM was found to be 100%.

For the compound `COc1ccccc1NCc1c(-c2ccc(OC(=O)c3cscn3)cc2OC)ccc2c1N(C)C(=O)C(C)(C)N2` [Compound 21-13, 8-(2-Methoxyphenylaminomethyl)-7-[2-methoxy-4-(thiazol-4-ylcarbonyloxy)phenyl]-1,3,3-trimethyl-3,4-dihydro-1H-quinoxalin-2-one], the inhibition at 10 µM turned out to be 94%.

In the case of `COc1ccc([N+](=O)[O-])cc1-c1ccc2c(c1COc1cc(F)ccc1C)N(C)C(=O)C(C)(C)N2` [Compound 6-27, 8-(5-fluoro-2-methylphenoxymethyl)-7-(2-methoxy-5-nitrophenyl)-1,3,3-trimethyl-3,4-dihydro-1H-quinoxalin-2-one], the inhibition at 10 µM stood at 100%.

As to `COc1cc(NC(=O)Oc2ccccc2)ccc1-c1ccc2c(c1COc1cc(F)ccc1C)N(C)C(=O)C(C)(C)N2` [Compound 14-37], the inhibition at 10 µM was determined as 93%.

As to `COc1cc(OC(=O)c2ccccc2OC(C)=O)ccc1-c1ccc2c(c1COc1cc(F)ccc1C)N(C)C(=O)C(C)(C)N2` [Compound 15-4], the inhibition at 10 µM amounted to 98%.

In the case of `COc1ccccc1NCc1c(-c2ccc(OC(=O)c3cccnc3C)cc2OC)ccc2c1N(C)C(=O)C(C)(C)N2` [Compound 21-12, 7-[2-Methoxy-4-(2-methylpyridin-3-ylcarbonyloxy)phenyl]-8-(2-methoxyphenylaminomethyl)-1,3,3-trimethyl-3,4-dihydro-1H-quinoxalin-2-one], the inhibition at 10 µM turned out to be 100%.
